Test results published in patent US11311522B1 (Cavion, Inc., priority 2018, dated 2022).
Several values for one entry are separate records, joined by “and”; a condition that tells them apart may be missing. Identical values can stand only once. Like-named read-outs stand apart in the source and are kept apart here.

Tests used:
[1] = Simulated Css and total active moiety, 10 mg BID; set-up: species or system human; conditions: for Css, estimated mean / Steady-state AUC24, estimated mean: CX-8998 10 mg twice daily fasted
[2] = 4-week oral toxicology in Beagle dogs
[3] = tested on: patients with essential tremor; test: T-CALM: adverse events, discontinuations, ECG; type: in vivo, human
Method: T-CALM employed the following dose titration scheme: Week 1 at 4 mg BID (8 mg/day), Week 2 at 8 mg BID (16 mg/day) and Weeks 3 & 4 at 10 mg BID (20 mg/day). […] Adverse Events were coded using MedDRA V20.0. Only treatment emergent adverse events with an onset date and time after the initiation of study drug until 30 days after discontinuation of drug were reported. For subjects who experience the same coded event more than once, a single event was presented. Adverse events were attributed to a study week based on the onset date, i.e. events that started on or after Visit 1 and prior to Visit 2 were classified as Study Week 1.
Electrocardiogram results were calculated as the average of the triplicate records at each time point. Baseline was defined as the mean of the triplicate values obtained pre-dose at Day 1. If this value was not available, the mean of the triplicate records obtained at screening were used.
Adverse events are characterized by maximum severity, drug-related adverse events, serious adverse events and adverse events leading to discontinuation of study.
Safety procedures involved collection of all TEAEs (treatment-emergent adverse events) coded into the Medical Dictionary for Regulatory Activities (MedDRA) version 20. Adverse events were classified by maximum severity, drug-related adverse events, serious adverse events, and adverse events leading to patient discontinuation.

[4] = molecular target: T1, Cav3.3 (Homo sapiens, UniProt Q9P0X4); test: Cav3.3 FLIPR calcium influx assay (HEK 293 cells); type: cell-based; conditions: read-out: IC50
T1 construct: expressed in transfected cells; host or cells: HEK 293
T1 sequence (Q9P0X4 whole entry, species assumed): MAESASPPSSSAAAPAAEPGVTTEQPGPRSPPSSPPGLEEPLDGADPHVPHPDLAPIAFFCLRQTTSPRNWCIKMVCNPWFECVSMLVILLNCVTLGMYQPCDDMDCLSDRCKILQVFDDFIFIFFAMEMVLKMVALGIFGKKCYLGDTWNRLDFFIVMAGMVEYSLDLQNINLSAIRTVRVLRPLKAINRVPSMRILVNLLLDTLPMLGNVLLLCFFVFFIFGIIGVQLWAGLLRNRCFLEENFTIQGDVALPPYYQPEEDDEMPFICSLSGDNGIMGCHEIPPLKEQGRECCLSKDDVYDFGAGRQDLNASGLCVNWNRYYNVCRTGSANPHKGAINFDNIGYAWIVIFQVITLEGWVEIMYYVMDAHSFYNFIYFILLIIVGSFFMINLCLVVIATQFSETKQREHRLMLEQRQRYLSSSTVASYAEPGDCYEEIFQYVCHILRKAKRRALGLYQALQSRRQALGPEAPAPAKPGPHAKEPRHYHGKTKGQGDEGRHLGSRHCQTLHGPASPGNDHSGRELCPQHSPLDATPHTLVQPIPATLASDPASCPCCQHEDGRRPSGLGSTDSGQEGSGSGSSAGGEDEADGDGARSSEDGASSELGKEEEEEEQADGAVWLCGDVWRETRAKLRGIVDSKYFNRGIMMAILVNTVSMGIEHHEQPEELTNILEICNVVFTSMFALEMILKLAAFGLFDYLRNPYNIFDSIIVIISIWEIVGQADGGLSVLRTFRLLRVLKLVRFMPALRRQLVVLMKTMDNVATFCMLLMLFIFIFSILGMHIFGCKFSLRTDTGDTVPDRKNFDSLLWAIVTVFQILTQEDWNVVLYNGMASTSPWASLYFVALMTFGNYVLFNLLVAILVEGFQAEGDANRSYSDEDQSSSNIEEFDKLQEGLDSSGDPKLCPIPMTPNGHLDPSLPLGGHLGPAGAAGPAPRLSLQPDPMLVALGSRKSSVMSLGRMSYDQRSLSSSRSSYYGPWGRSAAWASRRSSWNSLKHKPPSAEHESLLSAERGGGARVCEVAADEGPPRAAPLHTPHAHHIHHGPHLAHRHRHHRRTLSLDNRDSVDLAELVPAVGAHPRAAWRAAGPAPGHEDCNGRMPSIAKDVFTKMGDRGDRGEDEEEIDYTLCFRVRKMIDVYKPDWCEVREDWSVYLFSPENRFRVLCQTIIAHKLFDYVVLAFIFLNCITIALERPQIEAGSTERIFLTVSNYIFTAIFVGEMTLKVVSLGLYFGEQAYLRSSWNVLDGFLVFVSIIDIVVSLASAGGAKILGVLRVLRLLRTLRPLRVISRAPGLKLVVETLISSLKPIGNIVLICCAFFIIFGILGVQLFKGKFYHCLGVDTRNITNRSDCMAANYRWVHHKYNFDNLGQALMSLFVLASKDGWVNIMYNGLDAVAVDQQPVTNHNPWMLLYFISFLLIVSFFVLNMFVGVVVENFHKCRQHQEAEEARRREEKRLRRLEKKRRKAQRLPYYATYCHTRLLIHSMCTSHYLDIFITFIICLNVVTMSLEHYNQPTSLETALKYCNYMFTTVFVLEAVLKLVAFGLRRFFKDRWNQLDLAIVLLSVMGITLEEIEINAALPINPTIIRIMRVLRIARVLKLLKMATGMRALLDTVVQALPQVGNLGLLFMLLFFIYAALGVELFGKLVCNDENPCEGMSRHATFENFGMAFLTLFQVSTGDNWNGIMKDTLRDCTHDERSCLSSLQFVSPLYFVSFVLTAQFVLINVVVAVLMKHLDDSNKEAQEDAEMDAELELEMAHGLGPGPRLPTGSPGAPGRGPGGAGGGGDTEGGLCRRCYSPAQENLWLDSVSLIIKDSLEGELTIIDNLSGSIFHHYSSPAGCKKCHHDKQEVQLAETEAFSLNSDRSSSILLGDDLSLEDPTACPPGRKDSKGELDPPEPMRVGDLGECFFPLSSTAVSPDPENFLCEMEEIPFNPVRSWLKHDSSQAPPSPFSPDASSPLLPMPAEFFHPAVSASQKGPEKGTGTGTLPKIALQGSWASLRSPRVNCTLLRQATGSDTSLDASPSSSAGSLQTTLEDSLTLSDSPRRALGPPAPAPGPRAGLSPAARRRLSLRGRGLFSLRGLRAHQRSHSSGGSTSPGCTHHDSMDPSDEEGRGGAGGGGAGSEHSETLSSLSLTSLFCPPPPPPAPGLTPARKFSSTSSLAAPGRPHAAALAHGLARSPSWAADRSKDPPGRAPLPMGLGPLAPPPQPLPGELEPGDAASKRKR

[5] = clinical; conditions: human, plasma, oral, 8 mg
[6] = in vivo; conditions: Beagle, dog, in vivo, po
[7] = In vitro plasma protein binding, human; type: in vitro ADME
[8] = Off-target panel of enzyme and receptor binding sites, ion channels, transporters; conditions: 10 μM, over 170 targets
[9] = Pharmacokinetics in rhesus monkeys; type: in vivo, rhesus monkey
Method: The validity and reproducibility of the assays were determined, and the precision and accuracy for calibration standards and quality control samples were examined. […] The analytes were stable in plasma under the storage and assay conditions. […] Assay performances were satisfactory and met acceptance criteria for system performance suitability, quantitation range, calibration linearity, assay accuracy and precision, and assay recovery.

[10] = simulated from CX-8998 10 mg BID
[11] = Beagle dog, 4-week toxicity, oral gavage
[12] = Monkey, IV 2 mg/kg, mean (SD), 3 animals

## CC(C)c1ccc(CC(=O)N[C@H](C)c2ccc(OCC(F)(F)F)cn2)cc1 [CX-8998]
[1]; middle-aged and elderly men
  Css, estimated mean: 0.874 µM
  Steady-state AUC24, estimated mean: 20.976 µM·h
[1]; middle-aged and elderly women
  Css, estimated mean: 0.981 µM
  Steady-state AUC24, estimated mean: 23.544 µM·h
[1]; young men
  Css, estimated mean: 0.583 µM
  Steady-state AUC24, estimated mean: 13.992 µM·h
[1]; adjusted for fu and potency, 10 mg BID
  Cu, ss_adj: 2.3 nM
[1]; [10]
  Cp, ss: 0.583 µM
  Cu, ss: 2.3 nM
[2]; [11]
  NOEL: NOEL. 20 mg/kg/day. Dose-limiting
  dose at which dose-limiting toxicity (mortality, physical signs) was observed: observed at 800 mg/kg/day
[2]; dog, in vivo
  NOEL: 20 mg/kg/day
  Safety margin (AUC24) at the NOEL over expected clinical exposure: approximately 30 fold
[3]; N = 48
  Discontinuation due to Nervous System Disorders, subjects n (%): 4 (8%)
  Discontinuation due to Psychiatric Disorders, subjects n (%): 4 (8%)
  Dosage reduced Due to adverse event, subjects n (%): 3 (6%)
  Dosage reduced during study, subjects n (%): 4 (8%)
  Subjects with at least 1 event leading to discontinuation, n (%): 8 (17%)
[3]; N = 48, subject had inadequate drug supply at Visit 4
  Dosage reduced Due to other reasons, subjects n (%): 1 (2%)^3
[3]; Safety Analysis Set, n = 48
  TEAE Abnormal dreams, subjects n (%): 2 (4%)
  TEAE Disturbance in attention, subjects n (%): 2 (4%)
  TEAE Dizziness, subjects n (%): 10 (21%)
  TEAE Dry mouth, subjects n (%): 2 (4%)
  TEAE Dysgeusia, subjects n (%): 2 (4%)
  TEAE Ear and Labyrinth Disorders (system organ class), subjects n (%): 2 (4%)
  TEAE Euphoric mood, subjects n (%): 3 (6%)
  TEAE Gastrointestinal Disorders (system organ class), subjects n (%): 9 (19%)
  TEAE Hallucination, subjects n (%): 2 (4%)
  TEAE Headache, subjects n (%): 4 (8%)
  TEAE Hypesthesia, subjects n (%): 0
  TEAE Infections and Infestations (system organ class), subjects n (%): 4 (8%)
  TEAE Insomnia, subjects n (%): 3 (6%)
  TEAE Nausea, subjects n (%): 1 (2%)
  TEAE Nervous System Disorders (system organ class), subjects n (%): 20 (42%)
  TEAE Paraesthesia, subjects n (%): 2 (4%)
  TEAE Somnolence, subjects n (%): 1 (2%)
  TEAE Tinnitus, subjects n (%): 2 (4%)
  TEAE Urinary Tract Infection, subjects n (%): 2 (4%)
  TEAE Vomiting, subjects n (%): 0
[3]; Safety Analysis Set, n = 48, titrated up to 10 mg BID, 4 weeks
  Subjects with at least 1 treatment-emergent adverse event, n (%): 28 (58%)
[3]; Subject 26-001, Study Day 25, from 10 mg BID to 8 mg BID, Completed study
  Adverse Event (MedDRA Preferred Term) leading to dosage reduction: Anxiety
[3]; Subject 31-023, Study Day 8, from 8 mg BID to 4 mg BID, Withdrawn (Day 8), term wraps over r24-r26: Electrocardiogram T-wave abnormal
  Adverse Event (MedDRA Preferred Term) leading to dosage reduction: Electrocardio-
[3]; Subject 33-004, Study Day 8, from 4 mg BID to 2 mg BID, Withdrawn (Day 45) Lost to follow-up
  Adverse Event (MedDRA Preferred Term) leading to dosage reduction: Headache
[3]; TEAE, n = 48
  Abnormal dreams: 2 (4%) n (%)
  Disturbance in attention: 2 (4%) n (%)
  Dizziness: 10 (21%) n (%)
  Dry mouth: 2 (4%) n (%)
  Dysgeusia: 2 (4%) n (%)
  Ear and Labyrinth Disorders: 2 (4%) n (%)
  Euphoric mood: 3 (6%) n (%)
  Gastrointestinal Disorders: 9 (19%) n (%)
  Hallucination: 2 (4%) n (%)
  Headache: 4 (8%) n (%)
  Hypesthesia: 0 n (%)
  Infections and Infestations: 4 (8%) n (%)
  Insomnia: 3 (6%) n (%)
  Nausea: 1 (2%) n (%)
  Nervous System Disorders: 20 (42%) n (%)
  Paraesthesia: 2 (4%) n (%)
  Somnolence: 1 (2%) n (%)
  Tinnitus: 2 (4%) n (%)
  Urinary Tract Infection: 2 (4%) n (%)
  Vomiting: 0 n (%)
[3]; in vivo
  Discontinuation due to adverse events: 8 (17%) n (%)
  Dosage reduction due to TEAEs: 6%
  Electrocardiogram outlier analysis: no CVS safety signals
[4]; depolarizing conditions
  IC50: ~0.0036 µM and 0.0036 µM
[4]; hyperpolarizing conditions
  IC50: ~0.161 µM and 0.161 µM
[5]
  AUC(0-t): 7.49 µM·h
[6]; female, 300 mg/kg/day
  AUC: 2080 µM·h
  Cmax: 158 µM
[6]; male, 3 mg/kg/day
  AUC: 62.5 µM·h
  Cmax: 8.4 µM
[6]; male, 30 mg/kg/day
  Cmax: 73.5 µM
[6]; male, 300 mg/kg/day
  Cmax: 253 µM
[7]; human plasma, read-out: Human-free fraction
  fraction unbound: 0.004
[7]; human plasma, read-out: In vitro plasma protein binding (converted)
  fraction unbound: ~0.004
[7]; humans, read-out: free fraction
  fraction unbound: 0.004
[8]
  Off-target effects: No off-target effects
[9]; [12]
  CL: 15.9 (2.5) mL/min/kg
  t½: 1.3 (0.3) hr
[9]; Monkey, oral 20 mg/kg vs IV 2 mg/kg, mean (SD)
  F: 2.8 (10.) %
[9]; rhesus monkey, in vivo
  Plasma clearance: 16 mL/min/kg
  Vdss, mean: 0.9 L/kg
  half-life: 1.3 h
